Each structure is given as a SMILES string. Like-named read-outs stand apart in the source and are kept apart here.

Data set [1] is described as follows: antiallergic activity (general statement). As to conditions: compared with coumarin derivatives of Japanese Publication No. 64273/1975.
Data set [2] concerns passive cutaneous anaphylaxis (PCA) mediated by homocytotropic antibodies (HTA). Briefly: passive cutaneous anaphylaxis (PCA) test, oral, in rats. The class given is in vivo, rat (Wistar). As to conditions: Rattus norvegicus. How it is done: With respect to the present 3-(1H-tetrazol-5-yl)coumarin derivatives, there was tested antiallergic activity concerning passive cutaneous anaphylaxis (PCA) mediated by homocytotropic antibodies (HTA) in rats.
(i) Preparation of antisera
2,4-Dinitrophenyl-coupled ascaris extract (DNP-As) used as antigen, was prepared according to the methods of Strejan et al [cf. J. Immunol., Vol. 98, 893(1967)] and Eisen [cf. J. Amer. Chem. Soc., Vol. 75. 4593(1953)]. Antisera containing HTA were prepared in rats according to the method of Tada and Okumura [cf. J. Immunol., Vol. 106, 1002(1971)] as follows:
Female wister rats weighing 180 to 200 g. were splenectomized and several days later immunized by injecting into all four footpads a total of 1 mg. of DNP-As mixed with 10^10 Bordetella pertussis. After 5 days, 0.5 mg. of DNP-As alone was injected subcutaneously into the back of rats. Eight days after the first immunization, blood was collected by aortic puncture under ether anaesthesea and antisera obtained by these procedures were pooled and stored at -80° C.
The titer of the pooled autiserum was determined in rats by the 72 hr. PCA which method was described in the following item (ii), i.e. the highest dilution of antiserum producing a diameter of approximately 5 mm. was usually 1:500.
(ii) Assessment of PCA in rats
Normal wister rats weighing 140 to 160 g. were sensitized passively by injection intradermal on the shaved back skin 0.05 ml. of the diluted antisera (1:30). After 72 hours, the animals were injected intravenously 1 ml. of physiological salt solution containing 2 mg. DNP-As and 2.5 mg. Evans' blue.
The present compounds to be tested were given orally 30 minutes before antigen challenge. The animals were exsanguinated 30 minutes after challenge with the antigens and the skins were exfoliated. The intensities of PCA were evaluated by measuring the amount of leaked dye. The amount of dye leaked as a result of PCA was extracted according to the method of Harada et al [cf. Jpn. J. Allergol., Vol. 15, 1(1966)] and measured photometrically.

The nature of data set [3]: acute toxicity, oral, in mice. The class given is in vivo. As to conditions: mouse, in vivo, po. How it is done: Moreover, the introduction of substituent groups such as an alkoxyl group, an alkenyloxy group and hydroxyl group to the 5, 6, 7 or 8 position of the coumarin ring brings the decrease of toxicity.
With respect to the present 3-(1H-tetrazol-5-yl)coumarin derivatives, there was tested acute toxicity in mice.
After normal female Slc: ddy mice 4 weeks old were purchased and fed preliminarily in this lavoratory for a week, these mice weighing 25-27 g. were used in the test. The present compounds to be tested, were suspended in a 10% gum arabic solution and administered orally […]. body weight to mice. Each dose level was given to a group of ten animals and the survivors were kept under observation for 6 days. The numbers of dead animals were counted and the LD50 values in mg./kg. body weight were calculated by the method of Litchfield-Wilcoxon.

Where [4] appears, read: po, read-out: MED (minimum effective dose).
Setting [5] is: LD50 (50% lethal dose), Table 1, orally in mice.
[6] abbreviates: read-out: MED (minimum effect dose).
Setting [7] is: Table 4, oral, female Slc: ddy mice, 6 days observation, Litchfield-Wilcoxon, read-out: LD50.
[8] abbreviates: Table 3, oral 30 minutes before antigen challenge, rats, lowest dose significantly decreasing leaked dye vs control, read-out: MED (minimum effect dose).

With `O=c1oc2ccccc2cc1-c1nnn[nH]1`, the antiallergic activity entry in data set [1] is given as “stronger antiallergic activity”.
In the case of `Cc1c(-c2nnn[nH]2)c(=O)oc2c(Cl)cccc12` [Compound I, reference compound], the minimal effective dose in data set [2] (setting [4]) came out at 6.25 mg/kg. This compound also registered an LD50 at 144 h in data set [3] (setting [5]) of 1040 mg/kg.
Turning to `CCCCCOc1cccc2cc(-c3nnn[nH]3)c(=O)oc12` [Example 1, 8-n-Pentyloxy-3-(1H-tetrazol-5-yl)coumarin], the minimal effective dose in data set [2] (setting [4]) and in data set [2] (setting [6]) was 1.56 mg/kg each time. Besides, the LD50 at 144 h in data set [3] (setting [5]) and in data set [3] (setting [7]) was 1330 mg/kg each time.
`CCCCOc1cc(C)cc2cc(-c3nnn[nH]3)c(=O)oc12` [Example 2, 8-n-Butoxy-6-methyl-3-(1H-tetrazol-5-yl)coumarin]: the minimal effective dose in data set [2] (setting [4]) and in data set [2] (setting [6]) was 0.39 mg/kg throughout. The LD50 at 144 h in data set [3] (setting [5]) and in data set [3] (setting [7]) was 1870 mg/kg throughout.
For `COc1cccc2cc(-c3nnn[nH]3)c(=O)oc12` [Example 3, 8-Methoxy-3-(1H-tetrazol-5-yl)coumarin], in data set [2] (setting [8]), the minimal effective dose amounted to 6.25 mg/kg. In data set [3] (setting [7]), the LD50 at 144 h was 2000 to 3000 mg/kg.
Turning to `CCOc1cccc2cc(-c3nnn[nH]3)c(=O)oc12` [Example 4, 8-Ethoxy-3-(1H-tetrazol-5-yl)coumarin], the minimal effective dose in data set [2] (setting [4]) and in data set [2] (setting [6]) was 6.25 mg/kg throughout. Also, the LD50 at 144 h in data set [3] (setting [5]) and in data set [3] (setting [7]) was 2500 mg/kg throughout.
For `CCCOc1cccc2cc(-c3nnn[nH]3)c(=O)oc12` [Example 5, 8-n-Propoxy-3-(1H-tetrazol-5-yl)coumarin], the minimal effective dose in data set [2] (setting [8]) was 6.25 mg/kg. Moreover, the LD50 at 144 h in data set [3] (setting [7]) is 2000 to 3000 mg/kg.
For the compound `CC(C)Oc1cccc2cc(-c3nnn[nH]3)c(=O)oc12` [Example 6, 8-Isopropoxy-3-(1H-tetrazol-5-yl)coumarin], the minimal effective dose in data set [2] (setting [4]) and in data set [2] (setting [6]) was 1.56 mg/kg each time. The LD50 at 144 h in data set [3] (setting [5]) and in data set [3] (setting [7]) was 2250 mg/kg each time.
`CCCOc1ccc2cc(-c3nnn[nH]3)c(=O)oc2c1` [Example 7, 7-n-Propoxy-3-(1H-tetrazol-5-yl)coumarin]: in data set [2] (setting [8]), the minimal effective dose was 6.25 mg/kg. In data set [3] (setting [7]), the LD50 at 144 h fell in the range of 2000 to 3000 mg/kg.
In the case of `CCCCOc1cccc2cc(-c3nnn[nH]3)c(=O)oc12` [Example 8, 8-n-Butoxy-3-(1H-tetrazol-5-yl)coumarin], the minimal effective dose in data set [2] (setting [4]) and in data set [2] (setting [6]) was 1.56 mg/kg in each case. The median lethal dose (LD50) at 144 h in data set [3] (setting [5]) and in data set [3] (setting [7]) was 2380 mg/kg throughout.
Turning to `CC(C)CCOc1cccc2cc(-c3nnn[nH]3)c(=O)oc12` [Example 9, 8-Isopentyloxy-3-(1H-tetrazol-5-yl)coumarin], the minimal effective dose in data set [2] (setting [8]) was 0.39 mg/kg. In data set [3] (setting [7]), the LD50 at 144 h was in the range of 1000 to 2000 mg/kg.
The corresponding values for `CCCCCCCOc1cccc2cc(-c3nnn[nH]3)c(=O)oc12` [Example 11, 8-n-Heptyloxy-3-(1H-tetrazol-5-yl)coumarin] are 1.56 mg/kg and 2000 to 3000 mg/kg.
Taken in the same sequence, the figures for `CCCCCCCCCOc1cccc2cc(-c3nnn[nH]3)c(=O)oc12` [Example 12, 8-n-Nonyloxy-3-(1H-tetrazol-5-yl)coumarin] were 6.25 mg/kg and 2000 to 3000 mg/kg.
For the compound `CCCCCCCCCCCCOc1cccc2cc(-c3nnn[nH]3)c(=O)oc12` [Example 13, 8-n-Dodecyloxy-3-(1H-tetrazol-5-yl)coumarin], the minimal effective dose in data set [2] (setting [8]) was 6.25 mg/kg. For the same compound, the LD50 at 144 h in data set [3] (setting [7]) fell in the range of 2000 to 3000 mg/kg.
Turning to `CCCCCCCCCCCCCCCOc1cccc2cc(-c3nnn[nH]3)c(=O)oc12` [Example 14, 8-n-Pentadecyloxy-3-(1H-tetrazol-5-yl)coumarin], in data set [2] (setting [8]), the minimal effective dose was 6.25 mg/kg. Further, the LD50 at 144 h in data set [3] (setting [7]) fell in the range of 2000 to 3000 mg/kg.
For the compound `CCCCCCCCCCCCCCCCCCOc1cccc2cc(-c3nnn[nH]3)c(=O)oc12` [Example 15, 8-n-Octadecyloxy-3-(1H-tetrazol-5-yl)coumarin], the minimal effective dose in data set [2] (setting [8]) amounted to 6.25 mg/kg. Moreover, the LD50 at 144 h in data set [3] (setting [7]) is 2000 to 3000 mg/kg.
Taken in the same sequence, the figures for `C=CCOc1cccc2cc(-c3nnn[nH]3)c(=O)oc12` [Example 16, 8-Allyloxy-3-(1H-tetrazol-5-yl)coumarin] were 1.56 mg/kg and 2000 to 3000 mg/kg.
Taken in the same sequence, the figures for `CC(C)=CCC/C(C)=C/COc1cccc2cc(-c3nnn[nH]3)c(=O)oc12` [Example 17, 8-Geranyloxy-3-(1H-tetrazol-5-yl)coumarin] were 6.25 mg/kg and 500 to 1000 mg/kg.
Taken in the same sequence, the figures for `CC(C)=CCCC(C)=CCCC(C)=CCOc1cccc2cc(-c3nnn[nH]3)c(=O)oc12` [Example 18, 8-Farnesyloxy-3-(1H-tetrazol-5-yl)coumarin] were 6.25 mg/kg and 1000 to 2000 mg/kg.
On to `O=c1oc2c(O)cccc2cc1-c1nnn[nH]1` [Example 19, 8-Hydroxy-3-(1H-tetrazol-5-yl)coumarin], for which the minimal effective dose in data set [2] (setting [8]) stood at 25 mg/kg. Moreover, the LD50 at 144 h in data set [3] (setting [7]) lay within 2000 to 3000 mg/kg.
As for `CCOc1cc(C)cc2cc(-c3nnn[nH]3)c(=O)oc12` [Example 20, 8-Ethoxy-6-methyl-3-(1H-tetrazol-5-yl)coumarin], the minimal effective dose in data set [2] (setting [4]) and in data set [2] (setting [6]) was 1.56 mg/kg each time. Besides, the LD50 at 144 h in data set [3] (setting [5]) and in data set [3] (setting [7]) was 2360 mg/kg each time.
For the compound `CCCOc1cc(C)cc2cc(-c3nnn[nH]3)c(=O)oc12` [Example 21, 6-Methyl-8-n-propoxy-3-(1H-tetrazol-5-yl)coumarin], in data set [2] (setting [8]), the minimal effective dose came to 1.56 mg/kg. Besides, the LD50 at 144 h in data set [3] (setting [7]) lay in the range of 1000 to 2000 mg/kg.
Regarding `Cc1cc(OC(C)C)c2oc(=O)c(-c3nnn[nH]3)cc2c1` [Example 22, 8-Isopropoxy-6-methyl-3-(1H-tetrazol-5-yl)coumarin], the minimal effective dose in data set [2] (setting [4]) and in data set [2] (setting [6]) was 1.56 mg/kg each time. Moreover, the LD50 at 144 h in data set [3] (setting [5]) and in data set [3] (setting [7]) was 2200 mg/kg throughout.
For the compound `CCc1cc2cc(-c3nnn[nH]3)c(=O)oc2cc1OC` [Example 23, 6-Ethyl-7-methoxy-3-(1H-tetrazol-5-yl)coumarin], in data set [2] (setting [8]), the minimal effective dose stood at 1.56 mg/kg. In addition, in data set [3] (setting [7]), the LD50 at 144 h fell in the range of 500 to 1000 mg/kg.
Taken in the same sequence, the figures for `COc1ccc2cc(-c3nnn[nH]3)c(=O)oc2c1C` [Example 24, 7-Methoxy-8-methyl-3-(1H-tetrazol-5-yl)coumarin] were 6.25 mg/kg and 300 to 1000 mg/kg.
Taken in the same sequence, the figures for `COc1cc2cc(-c3nnn[nH]3)c(=O)oc2cc1C` [Example 25, 6-Methoxy-7-methyl-3-(1H-tetrazol-5-yl)coumarin] were 12.5 mg/kg and 500 to 1000 mg/kg.
`C=CCOc1cc(C)cc2cc(-c3nnn[nH]3)c(=O)oc12` [Example 26, 8-Allyloxy-6-methyl-3-(1H-tetrazol-5-yl)coumarin]: the minimal effective dose in data set [2] (setting [8]) was 1.56 mg/kg. Moreover, in data set [3] (setting [7]), the LD50 at 144 h is 2000 to 3000 mg/kg.
Taken in the same sequence, the figures for `Cc1cc(O)c2oc(=O)c(-c3nnn[nH]3)cc2c1` [Example 27, 8-Hydroxy-6-methyl-3-(1H-tetrazol-5-yl)coumarin] were 12.5 mg/kg and 2000 to 3000 mg/kg.
The corresponding values for `COc1cc2oc(=O)c(-c3nnn[nH]3)cc2cc1CC=C(C)C` [Example 28, 7-Methoxy-6-(3-methyl-2-butenyl)-3-(1H-tetrazol-5-yl)coumarin] are 1.56 mg/kg and 500 to 1000 mg/kg.
Consider `CCOc1cc2oc(=O)c(-c3nnn[nH]3)cc2cc1CC=C(C)C` [Example 29, 7-Ethoxy-6-(3-methyl-2-butenyl)-3-(1H-tetrazol-5-yl)coumarin], for which, in data set [2] (setting [8]), the minimal effective dose was 12.5 mg/kg. Moreover, in data set [3] (setting [7]), the median lethal dose (LD50) at 144 h fell in the range of 500 to 1000 mg/kg.
Taken in the same sequence, the figures for `CCOc1cc(OCC)c2cc(-c3nnn[nH]3)c(=O)oc2c1` [Example 30, 5,7-Diethoxy-3-(1H-tetrazol-5-yl)coumarin] were 12.5 mg/kg and 2000 to 3000 mg/kg.
With `Cc1ccc2oc(=O)c(-c3nnn[nH]3)c(C)c2c1` [J, reference compound], in data set [2] (setting [4]), the minimal effective dose came to 25 mg/kg. Also, in data set [3] (setting [5]), the LD50 at 144 h was determined as 533 mg/kg.

Values taken from patent US4363812A, “3-(Tetrazol-5-yl), 4-methyl-8-alkoxy coumarins and anti-allergic compositions thereof” (priority 1978, dated 1982).
